In patent US20260263547A1, “COMPOSITION FOR PREVENTING, AMELIORATING, OR TREATING ARTHRITIS, CONTAINING POTENTILLA CHINENSIS EXTRACT OR APIGENIN-7-O-GLUCURONIDE AS ACTIVE INGREDIENT” (BELABELBIO INC., priority 2023, published 2026):

Experiments:
MMP-9 = test: PMA-induced MMP-9 secretion in SW-1353 chondrocytes (ELISA); type: cell-based, Human; conditions: PMA 50 ng/mL, 24 hours, apigenin-7-O-glucuronide 50, 100, 200 μM
Description: To evaluate the inhibitory efficacy of apigenin-7-O-glucuronide from Example 2 on PMA-induced MMP-9 production in chondrocytes, the amount of MMP-9 secreted was measured using a Human MMP-9 ELISA kit (ab246539, Abcam, USA). Specifically, SW-1353 chondrocytes were obtained from the American Type Culture Collection (ATCC, MD, USA) and cultured in DMEM medium containing 10% FBS and 1% antibiotic-antimycotic under 5% CO2 at 37° C. The cells were seeded into 6-well plates at a density of 2.0×10^5 cells/2.0 mL/well and allowed to adhere for 24 hours, then treated with PMA (50 ng/mL) in DMEM. The extract of Potentilla chinensis from Example 1 was treated at concentrations of 50, 100, and 200 ppm, and apigenin-7-O-glucuronide from Example 2 was treated at concentrations of 50, 100, and 200 μM, followed by incubation for 24 hours. After 24 hours, the amount of MMP-1 in the supernatant was quantified using the ELISA kit, and the results are shown in FIG. 8.

MMP-1 = test: PMA-induced MMP-1 secretion in SW-1353 chondrocytes (ELISA); type: cell-based, Human; conditions: PMA 50 ng/mL, 24 hours, extract 50, 100, 200 ppm, apigenin-7-O-glucuronide 50, 100, 200 μM
Description: To evaluate the inhibitory efficacy of the extract of Potentilla chinensis from Example 1 and apigenin-7-O-glucuronide from Example 2 on PMA-induced MMP-1 production in chondrocytes, the amount of MMP-1 secreted was measured using a Human MMP-1 ELISA kit (ab100603, Abcam, USA). Specifically, SW-1353 chondrocytes were obtained from the American Type Culture Collection (ATCC, MD, USA) and cultured in DMEM medium containing 10% FBS and 1% antibiotic-antimycotic under 5% CO2 at 37° C. The cells were seeded into 6-well plates at a density of 2.0×10^5 cells/2.0 mL/well and allowed to adhere for 24 hours, then treated with PMA (50 ng/mL) in DMEM. The extract of Potentilla chinensis from Example 1 was treated at concentrations of 50, 100, and 200 ppm, and apigenin-7-O-glucuronide from Example 2 was treated at concentrations of 50, 100, and 200 μM, followed by incubation for 24 hours. After 24 hours, the amount of MMP-1 in the supernatant was quantified using the ELISA kit, and the results are shown in FIGS. 6A and 6B.

Collagen Type II Alpha 1 = test: IL-1β-induced Collagen Type II Alpha 1 synthesis in SW-1353 chondrocytes (ELISA); type: cell-based, Human; conditions: IL-1β 40 ng/ml, 24 hours, extract 50, 100, 200 ppm, apigenin-7-O-glucuronide 50, 100, 200 μM
Description: To evaluate the stimulatory efficacy of the extract of Potentilla chinensis from Example 1 and apigenin-7-O-glucuronide from Example 2 on IL-1β-induced Collagen Type II Alpha 1 synthesis in chondrocytes, the secretion of Collagen Type II Alpha 1 was measured using a Human Collagen II Alpha 1 ELISA kit (NBP2-75853, Novus, USA). Specifically, SW-1353 chondrocytes were obtained from the American Type Culture Collection (ATCC, MD, USA) and cultured in DMEM medium containing 10% FBS and 1% antibiotic-antimycotic under 5% CO2 at 37° C. The cells were seeded into 6-well plates at a density of 2.0×10^5 cells/2.0 mL/well and allowed to adhere for 24 hours, then treated with IL-1β (40 ng/ml) in DMEM. The extract of Potentilla chinensis from Example 1 was treated at concentrations of 50, 100, and 200 ppm, and apigenin-7-O-glucuronide from Example 2 was treated at concentrations of 50, 100, and 200 μM, followed by incubation for 24 hours. After 24 hours, the amount of Collagen II Alpha 1 in the supernatant was quantified using the ELISA kit, and the results are shown in FIGS. 9A and 9B.

COX-2 mRNA = test: LPS-induced COX-2 mRNA expression in RAW264.7 macrophages (real-time PCR); type: cell-based; conditions: LPS 500 ng/mL, 24 hours, extract 50, 100, 200 ppm, apigenin-7-O-glucuronide 50, 100, 200 μM
Description: (§1) To confirm the inhibitory efficacy of the extract of Potentilla chinensis from Example 1 and apigenin-7-O-glucuronide from Example 2 on LPS-induced COX-2 mRNA expression, the expression level of COX-2 mRNA was measured using real-time polymerase chain reaction (PCR). Specifically, RAW264.7 macrophages were obtained from the American Type Culture Collection (ATCC, MD, USA) and cultured in DMEM medium containing 10% FBS and 1% antibiotic-antimycotic under 5% CO2 at 37° C. The cells were seeded into 6-well plates at a density of 8.0×10^5 cells/2.0 mL/well and allowed to adhere for 24 hours, then treated with LPS (500 ng/mL) in DMEM to induce inflammation. The extract of Potentilla chinensis from Example 1 was treated at concentrations of 50, 100, and 200 ppm, and apigenin-7-O-glucuronide from Example 2 was treated at concentrations of 50, 100, and 200 μM, followed by incubation for 24 hours. After 24 hours, COX-2 mRNA was extracted from the cells, synthesized into cDNA, and quantitative real-time PCR was performed using specific primers to evaluate the expression level of COX-2.

IL-1β mRNA = test: LPS-induced IL-1β mRNA expression in RAW264.7 macrophages (real-time PCR); type: cell-based; conditions: LPS 500 ng/mL, 24 hours, extract 50, 100, 200 ppm, apigenin-7-O-glucuronide 50, 100, 200 μM
Description: as §1, with “Specifically,” for “To confirm the inhibitory efficacy of the extract of Potentilla chinensis from Example 1 and apigenin-7-O-glucuronide from Example 2 on LPS-induced COX-2 mRNA expression, the expression level of COX-2 mRNA was measured using real-time polymerase chain reaction (PCR). Specifically,”, “cells/1.5” for “cells/2.0”, “IL-1β” for “COX-2”, “IL-1β.” for “COX-2.”

[1] = test system: nitric oxide (NO) production; test: LPS-induced nitric oxide (NO) production in RAW264.7 macrophages (Griess reagent); type: cell-based; conditions: LPS 500 ng/ml, 24 hours, extract 50, 100, 200 ppm, apigenin-7-O-glucuronide 50, 100, 200 μM
Description: To confirm the NO-reducing effect of the extract of Potentilla chinensis from Example 1 and apigenin-7-O-glucuronide from Example 2, an inflammatory response was induced with LPS and subsequent changes in NO were measured. Specifically, RAW264.7 macrophages were obtained from the American Type Culture Collection (ATCC, MD, USA) and cultured in DMEM (Dulbecco's Modified Eagle's Medium) containing 10% FBS and 1% antibiotic-antimycotic under 5% CO2 at 37° C. The cells were seeded into 6-well plates at a density of 8.0×10^5 cells/1.5 mL/well and allowed to adhere for 24 hours, then treated with LPS (500 ng/ml) to induce inflammation. The extract of Potentilla chinensis from Example 1 was added at concentrations of 50, 100, and 200 ppm, and apigenin-7-O-glucuronide from Example 2 was added at concentrations of 50, 100, and 200 μM, followed by incubation for 24 hours. Next, 100 μL of the culture supernatant was transferred to a 96-well plate, mixed with 100 μL of Griess reagent (0.1% N-(1-naphtyl)ethylenediamine, 1% sulfanilamide), and reacted for 10 minutes. The absorbance of the resulting azo-derivative was measured at 540 nm using a microplate reader (BioTek, Vermont, USA). The measured absorbance was converted into nitrite concentration using a standard curve prepared with sodium nitrite dilutions, and the amount of NO produced was calculated.

O=C(O)[C@H]1O[C@@H](Oc2cc(O)c3c(=O)cc(-c4ccc(O)cc4)oc3c2)[C@H](O)[C@@H](O)[C@@H]1O [apigenin-7-O-glucuronide]
PMA-induced MMP-9 secretion (MMP-9): significantly inhibited MMP-9 secretion in a concentration-dependent manner | PMA-induced MMP-1 secretion (MMP-1): significantly inhibited MMP-1 secretion in a concentration-dependent manner | IL-1β-induced Collagen Type II Alpha 1 synthesis (Collagen Type II Alpha 1): significantly increased Collagen Type II Alpha 1 synthesis in a concentration-dependent manner | LPS-induced COX-2 mRNA expression (COX-2 mRNA): significantly inhibited COX-2 mRNA expression | LPS-induced IL-1β mRNA expression (IL-1β mRNA): significantly inhibited IL-1β mRNA expression in a concentration-dependent manner | LPS-induced NO production [1]: significantly inhibited NO production in a concentration-dependent manner
